Measurements taken from patent publication US20210277015A1, “OGA INHIBITOR COMPOUNDS” (Janssen Pharmaceutica NV, priority 2018, published 2021).
Structures can show the parent of a compound that is named as a salt.

How the values were obtained:
OGA = target: T1, OGA (Homo sapiens, UniProt O60502); test: OGA cellular assay (ICC detection of O-GlcNAcylated proteins in HEK293 cells inducible for P301L mutant human Tau); assay type: cell-based; details: for Emax: HEK293, HEK293 cells inducible for P301L mutant human Tau; for EC50: read-out: Cellular hOGA, pEC50 (converted)
T1 construct: endogenous in cells; host or cells: HEK293 cells inducible for P301L mutant human Tau (isoform 2N4R)
T1 sequence (O60502 1-916): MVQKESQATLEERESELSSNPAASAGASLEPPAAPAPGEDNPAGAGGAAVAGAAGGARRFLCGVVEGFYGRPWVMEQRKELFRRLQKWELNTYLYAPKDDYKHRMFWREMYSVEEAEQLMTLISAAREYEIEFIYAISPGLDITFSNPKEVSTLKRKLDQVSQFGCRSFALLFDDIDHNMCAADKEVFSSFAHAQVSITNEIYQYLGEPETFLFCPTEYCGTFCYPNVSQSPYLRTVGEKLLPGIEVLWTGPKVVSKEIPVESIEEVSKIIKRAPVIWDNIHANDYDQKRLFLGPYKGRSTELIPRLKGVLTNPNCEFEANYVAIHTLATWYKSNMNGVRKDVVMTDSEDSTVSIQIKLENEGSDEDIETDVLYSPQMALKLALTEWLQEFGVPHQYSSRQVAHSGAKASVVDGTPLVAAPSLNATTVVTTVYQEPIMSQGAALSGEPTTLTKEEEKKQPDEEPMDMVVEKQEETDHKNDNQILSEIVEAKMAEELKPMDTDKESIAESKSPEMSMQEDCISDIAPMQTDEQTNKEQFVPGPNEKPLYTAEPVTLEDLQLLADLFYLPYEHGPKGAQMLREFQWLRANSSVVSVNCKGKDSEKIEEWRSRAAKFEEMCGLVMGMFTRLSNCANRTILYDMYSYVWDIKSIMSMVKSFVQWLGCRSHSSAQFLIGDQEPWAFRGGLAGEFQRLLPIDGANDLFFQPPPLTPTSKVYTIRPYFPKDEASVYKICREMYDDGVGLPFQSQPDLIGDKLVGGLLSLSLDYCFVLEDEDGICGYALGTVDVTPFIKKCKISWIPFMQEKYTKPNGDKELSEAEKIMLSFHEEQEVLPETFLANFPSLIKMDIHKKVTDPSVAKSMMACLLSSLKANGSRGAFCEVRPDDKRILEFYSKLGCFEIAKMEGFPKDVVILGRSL
Summary of the method: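 HEK293 cells inducible for P301L human Tau (2N4R), in low-glucose medium, treated 6 h with compounds at 0.2% DMSO. After PFA fixation, O-GlcNAcylated proteins immunostained (CTD110.6), intensity imaged at 488 nm, Hoechst nuclei counted for toxicity. IC50 via non-linear regression; Thiamet G 200 uM as maximum.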

[1] = target: T2, recombinant human Meningioma Expressed Antigen 5 (MGEA5), also referred to as O-GlcNAcase (OGA) (Homo sapiens, UniProt O60502); test: OGA biochemical assay (inhibition of FM-GlcNAc hydrolysis, fluorescence); details: FM-GlcNAc substrate; for IC50: 6 h at room temperature, read-out: Enzymatic hOGA, pIC50 (converted); for Emax: read-out: Enzymatic Emax (%)
T2 construct: Full length OGA enzyme was purchased at OriGene (cat #TP322411); purchased OriGene TP322411
T2 sequence (O60502 1-916): T1 sequence (O60502 1-916)
Summary of the method: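 Full-length human OGA (2 nM) pre-incubated 60 min at room temperature with compound, then FM-GlcNAc (100 µM final) added in citrate/phosphate buffer pH 7.2 with 0.005% Tween-20; 6 h at room temperature, stopped with carbonate pH 11.0. Fluorescein read at 485/538 nm; IC50 and Hill coefficient from curve fit.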

[2] = maximum defined by Thiamet G at 200 uM
[3] = HEK293 cells inducible for P301L mutant human Tau, 6 hours incubation, ICC O-GlcNAcylation

Compound	melting point	Emax (OGA; [2])	EC50 (OGA; [3])	IC50 [1]	Emax ([1]; maximal effect)	Cellular hOGA; pEC50 (OGA; [3])	Cellular Emax (%) (OGA; HEK293 cells inducible for P301L mutant human Tau, maximum defined by Thiamet G at 200 uM)	Enzymatic Emax (%) ([1]; maximal effect)
Cc1cc(C[C@H]2CCN(C(C)c3ccc4c(c3)OCCN4C)C2)cc(C)n1 (some centres unmarked) (as salt: HCl) [Product 1]	297.5 °C	–	–	–	–	–	–	–
Cc1cc(CC2(C)CCN(C(C)c3ccc4c(n3)OCCO4)C2)cc(C)n1 (centres unmarked) [Product 58]	–	17%	> 1000 nM	316 nM	100%	–	–	–
Cc1cc(CC2(C)CCN(C(C)c3ccc4c(n3)OCCO4)C2)cc(C)n1 (centres unmarked) [Product 59]	–	–	–	398 nM	–	<6	34%	97%
Cc1ncc(O[C@@H]2CCN(C(C)c3ccc4c(n3)OCCO4)C2)cn1 (some centres unmarked) [Product 62]	–	1%	> 1000 nM	2510 nM	86%	–	–	–
Cc1cc(O[C@@H]2CCN(C(C)c3nc4c(cc3F)OCCO4)C2)ccn1 (some centres unmarked) [Product 125]	–	48%	501 nM	158 nM	89%	–	–	–
Cc1ncc(O[C@@H]2CCN(C(C)c3nc4c(cc3F)OCCO4)C2)nc1C (some centres unmarked) [Product 126]	–	73%	501 nM	100 nM	94%	–	–	–
CC(c1nc2c(cc1F)OCCO2)N1CC[C@@H](Oc2ccc(C(F)(F)F)nc2)C1 (some centres unmarked) [Product 127]	–	26%	> 1000 nM	200 nM	96%	–	–	–
Cc1cc(O[C@@H]2CCN(C(C)c3nc4c(cc3F)OCCO4)C2)nc(C)n1 (some centres unmarked) [Product 128]	–	59%	437 nM	50.1 nM	95%	–	–	–
Cc1cc(O[C@@H]2CCN(C(C)c3nc4c(cc3F)OCCO4)C2)cnc1C (some centres unmarked) [Product 129]	–	45%	–	200 nM	91%	–	–	–
